In brackets after ≈: the same amount, converted by molar mass. Like-named read-outs stand apart in the source and are kept apart here.
Tests used:
[1] = In vitro rat hepatocytes clearance assay; format: in vitro ADME
Description: (§1) In Vitro Rat/Human Hepatocytes Clearance Assay
(§2) Rat hepatocytes in male gender and human hepatocytes in mixed gender were obtained from commercial vendors (e.g., BioreclamationIVT) and stored at −150° C. prior to use. 10 mM stock solutions of tested compounds were prepared in DMSO. Thawing medium and supplement incubation medium (serum-free) were placed in a 37° C. water bath for at least 15 minutes prior to use. Stock solutions were diluted to 100 μM by combining 198 μL acetonitrile and 2 μL of 10 mM stock solution.
(§3) Vials of cryopreserved hepatocytes were removed from storage, ensured that vials remain at cryogenic temperatures. The vials were thawed in a 37° C. water bath with gently shaking. Vials were kept in a water bath until all ice crystals had dissolved and were no longer visible. Vials were sprayed with 70% ethanol before being transferred to a biosafety cabinet. And then the contents were poured into the 50 mL thawing medium conical tube. Vials were centrifuged at 100 g for 10 minutes at room temperature. Thawing medium was aspirated and hepatocytes were resuspended with serum-free incubation medium to yield ^˜1.5×10^6 cells/mL.
(§4) Cell viability and density were counted using a Trypan Blue exclusion, and then cells were diluted with serum-free incubation medium to a working cell density of 1×10^6 viable cells/ml. A portion of the hepatocytes at 1×10^6 viable cells/mL was boiled for 10 min prior to adding to the plate as negative control to eliminate the enzymatic activity so that little or no substrate turnover should be observed. The inactivated hepatocytes were used to prepare negative samples, which were used to exclude the misleading factor that resulted from instability of chemical itself.
(§5) Aliquots of 247.5 μL hepatocytes were dispensed into each well of a 96-well non-coated plate. The plate was placed in the incubator on an orbital shaker for approximately 10 minutes. Aliquots of 2.5 μL of the 100 μM test compounds were added into respective wells of the non-coated 96-well plate to start the reaction. This assay was performed in duplicate. The plate was incubated in the incubator on an orbital shaker for the designed time points. 20 μL of contents were transferred and mixed with 6 volumes (120 μL) of cold acetonitrile with internal standard to terminate the reaction at time points of 5, 15, 30, 45, 60, 80 and 100 minutes. Samples were centrifuges for 20 minutes at 4000 g and aliquots of 100 μl of the supernatants were used for LC-MS/MS analysis for measurement of test compounds.
(§6) In vitro hepatocyte clearance was estimated based on determination of elimination half-life (T1/2) of compounds disappearance from their initial concentrations. Peak area ratios of each compound (test or control) to IS was calculated. Ln (% Control) versus Incubation Time (min) curve was plotted, and the slope of a linear fitting line was calculated. Drug elimination rate constant k (min-1), T1/2 (min), and in vitro intrinsic clearance CLint (μL/min/E6) was calculated according to the following equations: k=−slope T1/2=0.693/k CLint=k/Chep • Where Chep (cells×μL-1) is the cell concentration in the incubation system. Procedure for Log D Determination

[2] = In vitro human hepatocytes clearance assay; format: in vitro ADME
Description: as §1, §2, §3, §4, §5, §6

[3] = Log D determination (octanol/phosphate buffer); format: physicochemical; settings: 25° C.
Description: 10 μL of working solution of each cassette is placed in order into respective 96-well rack position (Log D plate). Add 500 μL of saturated octanol into each vial of the above cap-less Log D plate followed by the addition of 500 μL of saturated phosphate buffer. Seal with a moulded PTFE/SIL 96-Well Plate Cover.
The samples are centrifuged at 4,000 rpm at 25° C. for 30 minutes to separate the phases. Pipette and syringe are used to pipette about 100 μL from the octanol and buffer phases to a new 96-well plate, respectively.
5 μL of octanol sample is transferred to a new 96-well plate, followed by addition of 495 μL of a mixture of H2O and acetonitrile containing internal standard (1:1) as 100 fold octanol samples. Vortex for 5 minutes at 1,000 rpm.
50 μL of 100 fold samples are transferred to new 96-well plate, followed by addition of 450 μL of a mixture of H2O and acetonitrile containing internal standard (1:1) as 1,000 fold octanol samples. Vortex for 5 minutes at 1,000 rpm.
The 1,000 folds octanol samples are serially diluted into 10,000, 100,000 and 1,000,000 folds with a mixture of H2O and acetonitrile containing internal standard (1:1).
50 μL of buffer samples are transferred to new 96-well plate, followed by addition of 450 μL of a mixture of H2O and acetonitrile containing internal standard (1:1) as 10 folds buffer samples. Vortex for 5 minutes at 1,000 rpm.
The 10 folds buffer samples are serially diluted into 100, 1,000 and 10,000 folds with a mixture of H2O and acetonitrile containing internal standard (1:1). The samples are evaluated by LC/MS/MS analysis. All compounds are tested in singlicate.
All calculations are carried out using Microsoft Excel. The concentrations of test compound in octanol/buffer solution are evaluated by LC/MS/MS. Calculate the Log D value of the test compound as follows:
(§7) [formula] DF means the dilution factor. Procedure for Protein Binding Measurements in Human Plasma by Using Equilibrium Dialysis

[4] = Protein binding in human plasma by equilibrium dialysis; format: in vitro ADME; settings: 18 hours at 37° C.; for fraction unbound at 18 h, 5 μM: human, plasma, pH 7.4, human plasma, read-out: hPPB (fu %); for hPPB (fu %): human plasma, 5 μM, fraction unbound
Description: as §7
Add 597 μL of blank plasma into each vial of a new plastic plate or separate plastic tube by addition of 3 μL of the working solution of each cassette, vortex at 1,000 rpm for 5 minutes. The final percent volume of organic solvent is 0.5% and the final concentration for test compound is 5 μM. Immediately transfer 50 μL of the spiked plasma suspension to a 96-well plate to act as T=0 control sample. The samples are treated the same as the samples after incubation. Place all remaining spiked plasma in the incubator for the duration of the study.
Place inserts open end up into the wells of the base plate. Add 500 μL of phosphate buffer (pH 7.4) to the buffer chamber, which is indicated by the white ring. Add 300 μL of spiked plasma sample into the sample chamber, which is indicated by the red ring. Cover the unit with gas permeable lid and incubate for 18 hours at 37° C. at 300 rpm with 5% CO2 on an orbital shaker in the CO2 incubator. At the end of incubation, remove lid and pipette 50 μL of post-dialysis samples from both buffer and plasma chambers into separated 96-well plate for analysis, respectively.
At the same time, the remaining spiked plasma sample in the plastic plate or separate plastic tube is incubated for 18 hours at 37° C. with 5% CO2 in the CO2 incubator. At T=18 hours, transfer 50 μL of the original spiked plasma suspension to the 96-well plate for analysis.
Add 50 μL of Human plasma to the buffer samples, and an equal volume of PBS to the collected plasma samples. Vortex the plate at 1,000 rpm for 2 minutes and add 400 μL of acetonitrile containing an appropriate internal standard (IS) to precipitate protein and release compound. Vortex at 1,000 rpm for 10 minutes. Centrifuge for 30 minutes at 4,000 rpm. Transfer 250 μl of the supernatant to new 96-well plates and centrifuge again (4,000 rpm, 30 minutes). Then transfer 100 μL of the supernatant to new 96-well plates for analysis. Add 100 μL of distilled water to each sample and vortex for 5 minutes at 1,000 rpm for analysis by LC-MS/MS. All compounds are tested in singlicate at 5 μM in human plasma.
All calculations are carried out using Microsoft Excel.
Calculate the percentage of unbound, percentage of bound and recovery of test compound as follows: […]

Hu Mic Clint = format: in vitro ADME, human; settings: for microsomal CLint: human, microsomes
DMSO solubility = format: physicochemical
[5] = biological target: T1, Recombinant BTK wild type (BTK WT) (Homo sapiens, UniProt Q06187); assay: BTK WT HTRF kinase assay; format: biochemical; settings: 30 min pre-incubation, 120 min reaction
T1 construct: purchased Thermo fisher
Description: (§8) Recombinant BTK wild type (BTK WT) was purchased from Thermo fisher.
(§9) In brief, recombinant kinases were pre-incubated in the presence or absence of compound at room temperature for 30 minutes. The reaction was initiated by the addition of the ATP and substrate peptide which could be phosphorylated by kinases in the reaction. After 120 minutes incubation, the reaction was stopped by the addition of the detection reagent mix containing EDTA.

Recombinant BTK(C481S) = biological target: T2, Recombinant BTK(C481S) (Homo sapiens, UniProt Q06187, C481S); assay: BTK C481S HTRF kinase assay; format: biochemical; settings: 30 min pre-incubation, 120 min reaction
T2 construct: purchased SignalChem
Description: [The procedure below names another variant; the source lists this variant under the same test.] as §8, §9

[6] = phase I trial for multiple sclerosis (MS); cited from earlier work

T2 sequence (Q06187 whole entry C481S): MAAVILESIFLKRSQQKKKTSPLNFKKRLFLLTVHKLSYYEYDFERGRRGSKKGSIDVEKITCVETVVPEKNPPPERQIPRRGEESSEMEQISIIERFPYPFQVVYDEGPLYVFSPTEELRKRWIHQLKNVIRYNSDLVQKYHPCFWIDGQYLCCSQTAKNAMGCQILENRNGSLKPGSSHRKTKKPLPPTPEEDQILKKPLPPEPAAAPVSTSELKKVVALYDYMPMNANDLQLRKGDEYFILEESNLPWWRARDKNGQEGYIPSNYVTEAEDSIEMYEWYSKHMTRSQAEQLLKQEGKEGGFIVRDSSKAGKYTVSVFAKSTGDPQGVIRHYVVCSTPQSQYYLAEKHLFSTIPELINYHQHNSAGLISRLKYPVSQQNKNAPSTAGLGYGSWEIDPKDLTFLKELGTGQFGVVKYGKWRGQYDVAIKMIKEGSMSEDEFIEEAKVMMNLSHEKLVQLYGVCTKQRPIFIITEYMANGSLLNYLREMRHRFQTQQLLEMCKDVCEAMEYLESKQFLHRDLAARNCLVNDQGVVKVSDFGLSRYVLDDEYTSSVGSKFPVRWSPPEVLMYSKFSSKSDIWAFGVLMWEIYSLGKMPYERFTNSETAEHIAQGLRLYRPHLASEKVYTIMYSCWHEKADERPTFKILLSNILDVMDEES
T1 sequence (Q06187 whole entry): as the sequence (Q06187 whole entry C481S) above, with S481C counted along it

SMILES | Rat Hep Clint [1] | Human Hep Clint [2] | logD at 2 h [3] | fraction unbound at 18 h, 5 μM [4] | microsomal CLint (Hu Mic Clint) | solubility (DMSO solubility; kinetic from dmso stock) | IC50 [5] | IC50 (Recombinant BTK(C481S)) | logD [3] | hPPB (fu %) [4] | Hu Mic Clint (Hu Mic Clint) | solubility (DMSO solubility) | tolerability [6]
C=CC(=O)N1CCC[C@@H](n2c(=O)n(-c3ccc(Oc4ccccc4)cc3)c3c(N)nccc32)C1 [PRN2246] |  |  |  |  |  |  |  |  |  |  |  |  | well tolerated
Nc1ncnn2c(C3CCC(CO)OC3)nc(-c3ccc(Oc4ccccc4)c(F)c3F)c12 (centres unmarked) [Compound 13, (5-(4-amino-5-(2,3-difluoro-4-phenoxyphenyl)imidazo[5,1-f][1,2,4]triazin-7-yl)tetrahydro-2H-pyran-2-yl)methanol] | 21.4 μL/min/10∧6 cells | 5.9 μL/min/10∧6 cells |  |  |  |  | 3.29 nM | 3.81 nM | 3.21 | 8.4% | <3 µL/min/mg | 113 µM (≈ 51.2 µg/mL) | 

Continued, in another order:

Rat Hep Clint [1] | Human Hep Clint [2] | logD at 2 h [3] | fraction unbound at 18 h, 5 μM [4] | microsomal CLint (Hu Mic Clint) | solubility (DMSO solubility; kinetic from dmso stock) | IC50 [5] | IC50 (Recombinant BTK(C481S)) | logD [3] | hPPB (fu %) [4] | Hu Mic Clint (Hu Mic Clint) | solubility (DMSO solubility) | SMILES | tolerability [6]
254.9 μL/min/10∧6 cells | 123.6 μL/min/10∧6 cells | 3.98 | 0.0257 | 19.3 µL/min/mg | < 1.6 µM |  |  |  |  |  |  | Nc1ncnn2c1c(-c1ccc(Oc3ccccc3)cc1F)nc2[C@H]1CC[C@H](CO)CC1 [reference compound] | 
119.3 μL/min/10∧6 cells | 92.9 μL/min/10∧6 cells | 4.16 | 0.0289 | 141 µL/min/mg | < 1.6 µM |  |  |  |  |  |  | Nc1nccn2c1c(-c1ccc(Oc3ccccc3)cc1)nc2[C@H]1CC[C@H](CO)CC1 [reference compound] | 
7.9 μL/min/10∧6 cells | 2.1 μL/min/10∧6 cells |  |  |  |  | 6.72 nM | 6.11 nM | 2.98 | 6.4% | <3 µL/min/mg | 84.0 µM (≈ 38.1 µg/mL) | Nc1ncnn2c(C3CCC(CO)OC3)nc(-c3ccc(Oc4cccc(F)c4F)cc3)c12 (centres unmarked) [Compound 15, (5-(4-amino-5-(4-(2,3-difluorophenoxy)phenyl)imidazo[5,1-f][1,2,4]triazin-7-yl)tetrahydro-2H-pyran-2-yl)methanol] | 

— patent US12624039B2, “BTK inhibitors” (DIZAL (JIANGSU) PHARMACEUTICAL CO., LTD., priority 2020, dated 2026)
